Results as given in the supplement of paper PMC10307832.

Experiments:
Assay in all cases: relative viability (nuclei count vs DMSO), 5 days (fraction); higher = more cells survive
[1] = compound: O=C(C[C@H]1NCCC[C@@H]1O)Cn1cnc2cc(Br)c(Cl)cc2c1=O (racemic) [Halofuginone] + N=C(N)NC(=N)NCCc1ccccc1 [Phenformin] (partner 250 µM)
Procedure, shortened: (§1)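 Relative viability divides the nuclei count in treated wells by that in vehicle wells. Lung cancer cell lines were seeded in 1536-well plates, dosed by pin tool the next day, and fixed and stained after 5 days in one step with final 0.05% Triton X-100, 1% formaldehyde and 1 ug/ml Hoechst. Dosing was a single drug or a fixed anchor-drug dose plus five library-drug doses (not always all listed) in √10 steps, and values are medians of duplicate plates imaged at 4×.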

Cediranib + Palbociclib = compound: COc1cc2c(Oc3ccc4[nH]c(C)cc4c3F)ncnc2cc1OCCCN1CCCC1 [Cediranib] + CC(=O)c1c(C)c2cnc(Nc3ccc(N4CCNCC4)cn3)nc2n(C2CCCC2)c1=O [Palbociclib] (partner 0.5 µM)
Procedure, shortened: as §1

Halofuginone + Olaparib = compound: O=C(C[C@H]1NCCC[C@@H]1O)Cn1cnc2cc(Br)c(Cl)cc2c1=O (racemic) [Halofuginone] + O=C(c1cc(Cc2n[nH]c(=O)c3ccccc23)ccc1F)N1CCN(C(=O)C2CC2)CC1 [Olaparib] (partner 8 µM)
Procedure, shortened: as §1

Cediranib + Decitabine = compound: COc1cc2c(Oc3ccc4[nH]c(C)cc4c3F)ncnc2cc1OCCCN1CCCC1 [Cediranib] + Nc1ncn([C@H]2C[C@H](O)[C@@H](CO)O2)c(=O)n1 [Decitabine] (partner 2 µM)
Procedure, shortened: as §1

Cell Line	relative viability ([1]; first compound 0.001 µM)	relative viability ([1]; first compound 0.003162 µM)	relative viability ([1]; first compound 0.01 µM)	relative viability ([1]; first compound 0.03162 µM)	relative viability ([1]; first compound 0.1 µM)	relative viability (Cediranib + Palbociclib; first compound 0.04 µM)	relative viability (Cediranib + Palbociclib; first compound 0.1265 µM)	relative viability (Cediranib + Palbociclib; first compound 0.4 µM)	relative viability (Cediranib + Palbociclib; first compound 1.265 µM)	relative viability (Cediranib + Palbociclib; first compound 4 µM)	relative viability (Halofuginone + Olaparib; first compound 0.001 µM)	relative viability (Halofuginone + Olaparib; first compound 0.003162 µM)	relative viability (Halofuginone + Olaparib; first compound 0.01 µM)	relative viability (Halofuginone + Olaparib; first compound 0.03162 µM)	relative viability (Halofuginone + Olaparib; first compound 0.1 µM)	relative viability (Cediranib + Decitabine; first compound 0.04 µM)	relative viability (Cediranib + Decitabine; first compound 0.1265 µM)	relative viability (Cediranib + Decitabine; first compound 0.4 µM)	relative viability (Cediranib + Decitabine; first compound 1.265 µM)	relative viability (Cediranib + Decitabine; first compound 4 µM)
NCI-H2405	0.423	0.436	0.414	0.396	0.337	0.532	0.574	0.516	0.546	0.514	0.934	0.864	0.826	0.795	0.66	0.68	0.758	0.71	0.661	0.793
NCI-H3122	0.379	0.37	0.356	0.355	0.383	0.209	–	0.186	0.199	0.175	0.654	0.618	0.642	0.692	0.686	0.558	–	0.421	0.417	0.477
PC-3 [JPC-3]	0.501	0.453	0.456	0.473	0.443	0.571	–	0.515	0.559	0.563	1.19	1.12	1.15	1.15	0.948	0.804	–	0.777	0.737	0.753
PC-14	0.563	0.553	0.565	0.606	0.281	0.601	0.627	0.487	0.439	0.328	0.383	0.333	0.406	0.218	0.0499	0.209	0.245	0.241	0.309	0.264
RERF-LC-KJ	0.447	0.436	0.381	0.416	0.423	1.15	1.02	1	1.15	1.13	1.19	0.983	0.884	0.959	0.632	0.657	0.629	0.715	0.666	0.684
SK-LU-1	0.541	0.636	0.604	0.415	0.301	0.434	0.441	0.385	0.375	0.383	0.488	0.444	0.477	0.454	0.312	0.657	0.638	0.636	0.613	0.73
SK-MES-1	0.657	0.717	0.621	0.556	0.228	0.304	0.311	0.328	0.283	0.324	0.768	0.69	0.713	0.345	0.174	0.427	0.394	0.436	0.384	0.387
SW 900	0.657	0.565	0.695	0.712	0.4	0.569	0.677	0.552	0.575	0.594	0.805	0.851	–	0.733	0.197	0.45	0.421	0.425	0.444	0.53
SW 1573	0.411	0.389	0.378	0.357	0.205	0.362	0.412	0.394	0.389	0.382	0.496	0.422	0.526	0.232	0.138	0.606	0.685	0.542	0.408	0.553
